Results on 2 compounds are retold here after patent US11034742B2, “Peptides with antibiotic potential against Mycobacterium tuberculosis” (LINNANE PHARMA AB, priority 2017, dated 2021).

The test system of the assay is M. tuberculosis.

In brackets after ≈: the same amount, converted by molar mass. Positions of bridges follow the written chain, without caps; N, C: chain ends. Residues, ends and D or L forms follow the SMILES beside them.

Consider `CC[C@H](C)[C@@H]1NC(=O)[C@H](CO)NC(=O)[C@H](CCCCN)NC(=O)[C@@H]2CSSC[C@@H](C(=O)N[C@@H](Cc3ccc(O)cc3)C(=O)O)NC(=O)[C@H](CCCCN)NC(=O)[C@@H]3CSSC[C@H](NC(=O)[C@H](CCC(N)=O)NC(=O)[C@H]([C@@H](C)CC)NC(=O)[C@H](CC(=O)O)NC(=O)[C@H](CC(=O)O)NC(=O)[C@H](CCC(=O)O)NC(=O)[C@H](CO)NC(=O)[C@H](Cc4c[nH]c5ccccc45)NC(=O)[C@@H]4CCCN4C(=O)CNC(=O)[C@H](CC(N)=O)NC(=O)[C@@H](NC(=O)CNC(=O)[C@H](Cc4ccccc4)NC(=O)CN)CSSC[C@H](NC(=O)[C@H](Cc4ccc(O)cc4)NC(=O)CNC(=O)CNC(=O)[C@H](CCCCN)NC(=O)[C@H](Cc4ccc(O)cc4)NC(=O)CNC(=O)[C@H](CCCCN)NC1=O)C(=O)N[C@@H](C)C(=O)N[C@@H](CCCNC(=N)N)C(=O)NCC(=O)NCC(=O)N[C@@H](Cc1ccccc1)C(=O)N[C@@H](C(C)C)C(=O)N3)C(=O)N[C@@H](Cc1c[nH]cn1)C(=O)N[C@@H](CC(N)=O)C(=O)N[C@@H](Cc1c[nH]cn1)C(=O)N2` [SEQ ID NO: 3] (H-GFGCNGPWSEDDIQCHNHCKSIKGYKGGYCARGGFVCKCY-OH; disulfide 4-30, 15-37, 19-39 (inferred); N-terminus and C-terminus assumed), for which the “MIC (mg/L)” value amounted to 27.5 mg/L (≈ 6.27 µM), the “MIC (μM)” value amounted to 6.8 µM (≈ 29.8 µg/mL) and the “mean concentration inhibiting 99% of bacterial growth” value amounted to 6.3 µM.
Turning to `CC[C@H](C)[C@@H]1NC(=O)[C@H](C)NC(=O)[C@@H]2CSSC[C@H](NC(=O)CNC(=O)[C@H](Cc3ccccc3)NC(=O)CN)C(=O)N[C@@H](CC(N)=O)C(=O)NCC(=O)N3CCC[C@H]3C(=O)N[C@@H](Cc3c[nH]c4ccccc34)C(=O)N[C@@H](CO)C(=O)N[C@@H](CCC(=O)O)C(=O)N[C@@H](CC(=O)O)C(=O)N[C@@H](CC(=O)O)C(=O)N[C@@H]([C@@H](C)CC)C(=O)N[C@@H](CCC(N)=O)C(=O)N[C@H]3CSSC[C@H](NC(=O)[C@H](C(C)C)NC(=O)[C@H](Cc4ccccc4)NC(=O)CNC(=O)CNC1=O)C(=O)N[C@@H](CCCCN)C(=O)N[C@H](C(=O)N[C@@H](Cc1ccc(O)cc1)C(=O)O)CSSC[C@H](NC(=O)[C@H](Cc1c[nH]cn1)NC(=O)[C@H](CC(N)=O)NC(=O)[C@H](Cc1c[nH]cn1)NC3=O)C(=O)N[C@@H](CCCCN)C(=O)N[C@@H](CO)C(=O)N[C@@H]([C@@H](C)CC)C(=O)N[C@@H](CCCCN)C(=O)NCC(=O)N[C@@H](Cc1ccc(O)cc1)C(=O)N[C@@H](CCCCN)C(=O)NCC(=O)NCC(=O)N[C@@H](Cc1ccc(O)cc1)C(=O)N2` [SEQ ID NO: 4] (H-GFGCNGPWSEDDIQCHNHCKSIKGYKGGYCAIGGFVCKCY-OH; disulfide 4-30, 15-37, 19-39 (inferred); N-terminus and C-terminus assumed), the “mean concentration inhibiting 99% of bacterial growth” value came out at 6.3 µM.
